Literature values as cited in patent US20040235879A1, “Method for treatment of chemotherapy-induced diarrhea” (priority 2003, published 2004).
Counter-ions that a name gives are not always drawn.

What was measured:
[1] = cited from earlier work
BCRP/MXR/ABCP (ABCG2) = biological target: T1, BCRP/MXR/ABCP (ABCG2) (Homo sapiens, UniProt Q9UNQ0); settings: cited from earlier work
T1 sequence (Q9UNQ0 1-655): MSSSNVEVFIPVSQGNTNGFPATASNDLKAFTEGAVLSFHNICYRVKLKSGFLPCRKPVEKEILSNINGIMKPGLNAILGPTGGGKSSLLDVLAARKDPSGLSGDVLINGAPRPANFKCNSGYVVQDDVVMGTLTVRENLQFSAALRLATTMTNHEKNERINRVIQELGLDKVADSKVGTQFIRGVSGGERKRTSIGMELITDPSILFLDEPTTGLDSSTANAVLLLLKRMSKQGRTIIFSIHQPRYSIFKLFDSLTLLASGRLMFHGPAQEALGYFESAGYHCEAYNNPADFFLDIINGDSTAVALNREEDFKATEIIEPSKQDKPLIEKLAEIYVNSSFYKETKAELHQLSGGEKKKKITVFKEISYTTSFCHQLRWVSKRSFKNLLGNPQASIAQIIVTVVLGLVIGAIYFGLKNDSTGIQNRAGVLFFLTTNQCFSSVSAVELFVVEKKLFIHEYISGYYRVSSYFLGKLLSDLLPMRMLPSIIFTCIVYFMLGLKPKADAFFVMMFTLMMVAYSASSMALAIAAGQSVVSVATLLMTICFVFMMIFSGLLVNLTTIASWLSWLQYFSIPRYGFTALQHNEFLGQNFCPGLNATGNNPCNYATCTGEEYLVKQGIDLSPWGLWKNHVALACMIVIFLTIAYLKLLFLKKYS

MRP2 (ABCC2) = MRP2 (ABCC2) (Homo sapiens, UniProt Q92887); settings: cited from earlier work
Sequence of MRP2 (ABCC2) (Q92887 whole entry, species assumed): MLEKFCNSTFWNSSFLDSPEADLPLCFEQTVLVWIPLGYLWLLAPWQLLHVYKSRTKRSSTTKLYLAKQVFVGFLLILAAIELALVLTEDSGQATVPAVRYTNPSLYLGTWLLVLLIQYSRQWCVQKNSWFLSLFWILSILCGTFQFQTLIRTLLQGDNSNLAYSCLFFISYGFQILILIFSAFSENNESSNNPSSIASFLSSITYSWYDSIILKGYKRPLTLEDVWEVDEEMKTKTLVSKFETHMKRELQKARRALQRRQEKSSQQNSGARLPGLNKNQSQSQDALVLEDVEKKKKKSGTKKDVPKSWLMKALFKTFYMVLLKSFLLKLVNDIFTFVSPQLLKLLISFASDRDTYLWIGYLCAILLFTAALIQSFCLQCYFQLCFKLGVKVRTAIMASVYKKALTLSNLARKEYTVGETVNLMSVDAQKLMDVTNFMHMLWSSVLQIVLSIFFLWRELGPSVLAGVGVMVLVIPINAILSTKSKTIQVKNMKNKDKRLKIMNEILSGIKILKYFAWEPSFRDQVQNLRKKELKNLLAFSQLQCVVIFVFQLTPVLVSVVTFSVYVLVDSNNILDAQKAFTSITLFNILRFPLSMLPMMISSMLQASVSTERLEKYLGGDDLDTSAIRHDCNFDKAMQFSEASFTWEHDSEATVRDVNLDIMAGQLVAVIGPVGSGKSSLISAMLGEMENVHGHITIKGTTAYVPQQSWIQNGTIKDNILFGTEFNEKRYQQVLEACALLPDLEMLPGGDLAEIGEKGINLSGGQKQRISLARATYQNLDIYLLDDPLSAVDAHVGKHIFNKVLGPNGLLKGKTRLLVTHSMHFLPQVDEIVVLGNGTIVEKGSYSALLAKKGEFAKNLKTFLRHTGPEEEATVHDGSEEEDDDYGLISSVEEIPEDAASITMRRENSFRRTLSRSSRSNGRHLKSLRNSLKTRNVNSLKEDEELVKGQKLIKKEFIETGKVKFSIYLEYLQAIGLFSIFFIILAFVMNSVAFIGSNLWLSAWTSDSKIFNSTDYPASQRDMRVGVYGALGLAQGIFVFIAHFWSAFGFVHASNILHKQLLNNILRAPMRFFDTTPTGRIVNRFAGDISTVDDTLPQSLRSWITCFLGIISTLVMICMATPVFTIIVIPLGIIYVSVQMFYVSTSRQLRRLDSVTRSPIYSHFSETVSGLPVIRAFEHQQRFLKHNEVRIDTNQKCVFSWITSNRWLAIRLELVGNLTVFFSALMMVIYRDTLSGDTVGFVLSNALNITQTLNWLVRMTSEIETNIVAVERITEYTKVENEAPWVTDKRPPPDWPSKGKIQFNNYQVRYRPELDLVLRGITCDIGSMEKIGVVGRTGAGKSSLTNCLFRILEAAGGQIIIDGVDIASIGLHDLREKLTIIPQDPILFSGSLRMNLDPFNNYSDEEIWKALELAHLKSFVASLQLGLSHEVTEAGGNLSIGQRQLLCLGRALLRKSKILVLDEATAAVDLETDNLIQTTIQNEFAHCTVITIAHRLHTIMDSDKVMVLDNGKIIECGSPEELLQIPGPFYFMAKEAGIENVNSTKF

P-gp (ABCB1) = P-gp (ABCB1) (Homo sapiens, UniProt P08183); settings: cited from earlier work
Sequence of P-gp (ABCB1) (P08183 whole entry, species assumed): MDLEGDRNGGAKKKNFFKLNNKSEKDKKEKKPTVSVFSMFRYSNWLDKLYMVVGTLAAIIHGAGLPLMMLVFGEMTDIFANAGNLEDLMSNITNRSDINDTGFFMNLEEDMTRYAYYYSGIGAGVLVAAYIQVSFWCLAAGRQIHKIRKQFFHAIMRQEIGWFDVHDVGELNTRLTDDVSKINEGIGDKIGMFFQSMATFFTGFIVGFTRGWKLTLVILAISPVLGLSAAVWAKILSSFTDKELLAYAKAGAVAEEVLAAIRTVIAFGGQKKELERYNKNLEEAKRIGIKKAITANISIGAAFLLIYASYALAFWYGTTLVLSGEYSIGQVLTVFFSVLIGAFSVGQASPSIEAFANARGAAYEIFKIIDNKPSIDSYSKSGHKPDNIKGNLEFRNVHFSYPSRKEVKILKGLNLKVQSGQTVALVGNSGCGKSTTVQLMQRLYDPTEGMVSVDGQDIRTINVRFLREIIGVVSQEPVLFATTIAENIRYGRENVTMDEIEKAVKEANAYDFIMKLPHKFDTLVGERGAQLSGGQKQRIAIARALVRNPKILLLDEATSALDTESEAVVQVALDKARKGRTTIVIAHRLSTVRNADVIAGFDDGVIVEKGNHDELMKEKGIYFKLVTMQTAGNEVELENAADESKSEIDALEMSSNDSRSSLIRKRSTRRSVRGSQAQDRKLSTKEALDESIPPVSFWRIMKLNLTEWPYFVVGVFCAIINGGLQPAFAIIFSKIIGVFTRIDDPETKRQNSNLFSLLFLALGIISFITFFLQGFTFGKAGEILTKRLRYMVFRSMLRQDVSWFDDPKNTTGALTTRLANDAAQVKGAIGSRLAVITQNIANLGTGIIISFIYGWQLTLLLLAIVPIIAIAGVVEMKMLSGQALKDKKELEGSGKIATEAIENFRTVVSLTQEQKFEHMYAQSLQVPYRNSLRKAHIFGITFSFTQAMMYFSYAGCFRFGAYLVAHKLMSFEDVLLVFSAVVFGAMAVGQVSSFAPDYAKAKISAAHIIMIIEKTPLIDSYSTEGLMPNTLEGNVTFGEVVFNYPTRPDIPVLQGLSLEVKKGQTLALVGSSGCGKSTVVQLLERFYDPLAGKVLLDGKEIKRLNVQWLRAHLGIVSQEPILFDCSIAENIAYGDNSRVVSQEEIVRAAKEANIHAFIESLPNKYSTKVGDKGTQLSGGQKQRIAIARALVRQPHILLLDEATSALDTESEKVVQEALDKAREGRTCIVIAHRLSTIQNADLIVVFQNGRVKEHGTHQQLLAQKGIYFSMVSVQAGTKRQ

## O=c1[nH]cc(F)c(=O)[nH]1 [5-fluorouracil]
[1]; 5-fluorouracil alone
  patients with severe or life-threatening diarrhea: About 8%
[1]; 5-fluorouracil combined with leucovorin
  frequency of severe or life-threatening diarrhea: up to 25%

## CCc1c2c(nc3ccc(OC(=O)N4CCC(N5CCCCC5)CC4)cc13)-c1cc3c(c(=O)n1C2)COC(=O)[C@]3(O)CC [CPT-11, Irinotecan hydrochloride]
[1]; diarrhea alone or in combination with other gastrointestinal disturbances
  patients requiring hospitalization because of diarrhea: more than 18%

## CCc1c2c(nc3ccc(OC(=O)N4CCC(N5CCCCC5)CC4)cc13)-c1cc3c(c(=O)n1C2)COC(=O)[C@]3(O)CC [irinotecan, [1,4′-Bipiperidine]-1′-carboxylic acid (4S)-4,11-diethyl-3,4,12,14-tetrahydro-4-hydroxy-3,14-dioxo-1H-pyrano[3′,4′:6,7]indolizino[1,2-b]quinolin-9-yl ester]
BCRP/MXR/ABCP (ABCG2)
  substrate of BCRP/MXR/ABCP (ABCG2): substrate
MRP2 (ABCC2)
  substrate of MRP2 (ABCC2): substrate
P-gp (ABCB1)
  substrate of P-gp (ABCB1): substrate
